species: Oryctolagus cuniculus; test: Antagonist activity on isolated endothelium-deprived rabbit pulmonary artery preparations when evaluated against a contractile concentration response curve to NKA; format: functional

SMILES	pKB
CCOC(=O)C1=C(C)OC2OC(COCc3ccccc3)C(OCc3ccccc3)C(OCc3ccccc3)C2[S+]1[O-] (stereo not given)	6

target: T1, Substance-K receptor (Homo sapiens, UniProt P21452); test: Displacement of [125I]NKA from human Tachykinin receptor 2 expressed in CHO cells; format: cell-based
T1 sequence (P21452 whole entry): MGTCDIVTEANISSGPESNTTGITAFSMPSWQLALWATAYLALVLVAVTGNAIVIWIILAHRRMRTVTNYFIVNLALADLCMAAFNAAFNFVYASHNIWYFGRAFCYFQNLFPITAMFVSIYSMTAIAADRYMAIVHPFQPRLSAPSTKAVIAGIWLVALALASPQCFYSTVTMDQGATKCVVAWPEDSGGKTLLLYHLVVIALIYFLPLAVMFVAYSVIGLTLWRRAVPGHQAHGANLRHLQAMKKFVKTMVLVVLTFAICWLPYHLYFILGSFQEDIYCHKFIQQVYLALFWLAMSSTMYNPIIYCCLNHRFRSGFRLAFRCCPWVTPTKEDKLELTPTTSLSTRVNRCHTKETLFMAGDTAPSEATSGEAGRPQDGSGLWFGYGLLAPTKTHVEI

SMILES	Ki
O=C(C1=C(c2ccccc2)OC2OC(COCc3ccccc3)C(OCc3ccccc3)C(OCc3ccccc3)C2S1)c1ccccc1 (stereo not given)	> 10 µM
O=C(C1=C(c2ccccc2)OC2OC(COCc3ccccc3)C(OCc3ccccc3)C(OCc3ccccc3)C2[S+]1[O-])c1ccccc1 (stereo not given)	0.79 µM
CCOC(=O)C1=C(C)OC2OC(COCc3ccccc3)C(OCc3ccccc3)C(OCc3ccccc3)C2[S+]1[O-] (stereo not given)	0.25 µM
CCOC(=O)C1=C(C)OC2OC(COCc3ccccc3)C(OCc3ccccc3)C(OCc3ccccc3)C2S1 (stereo not given)	12.6 µM
CCOC(=O)C1=C(C)OC2OC(CO)C(OCc3ccccc3)C(O)C2S1 (stereo not given)	> 10 µM
CC1=C(C(=O)Oc2ccccc2)SC2C(O1)OC(COCc1ccccc1)C(OCc1ccccc1)C2OCc1ccccc1 (stereo not given)	> 10 µM
CCOC(=O)C1=C(C)OC2OC(CO)C(OCc3ccccc3)C(OCc3ccccc3)C2[S+]1[O-] (stereo not given)	4 µM
O=C(C1=C(c2ccccc2)OC2OC(COCc3ccccc3)C(OCc3ccccc3)C(OCc3ccccc3)C2S1(=O)=O)c1ccccc1 (stereo not given)	5.01 µM
CCOC(=O)C1=C(C)OC2OC(CO)C(OCc3ccccc3)C(O)C2[S+]1[O-] (stereo not given)	> 10 µM
CCOC(=O)C1=C(C)OC2OC(COCc3ccccc3)C(OCc3ccccc3)C(O)C2S1 (stereo not given)	12.6 µM
CCOC(=O)C1=C(C)OC2OC(COCc3ccccc3)C(OCc3ccccc3)C(O)C2[S+]1[O-] (stereo not given)	0.79 µM
CC1=C(C(=O)Oc2ccccc2)[S+]([O-])C2C(O1)OC(COCc1ccccc1)C(OCc1ccccc1)C2OCc1ccccc1 (stereo not given)	0.4 µM
CCOC(=O)C1=C(C)OC2OC(CO)C(OCc3ccccc3)C(OCc3ccccc3)C2S1 (stereo not given)	4 µM
CCOC(=O)C1=C(C)OC2OC(COCc3ccccc3)C(O)C(OCc3ccccc3)C2[S+]1[O-] (stereo not given)	> 10 µM

From ChEMBL document CHEMBL1134877, “Design, synthesis and biological activity of carbohydrate-containing peptidomimetics as new ligands for the human tachykinin NK-2 receptor” (Bioorg Med Chem Lett, 2002)
